Measured values as given in patent publication US11584747B2, “Substituted pyridopyrimidinonyl compounds useful as T cell activators” (BRISTOL-MYERS SQUIBB COMPANY, priority 2019, dated 2023).
Where two headings read alike, the source gives them in different places.

Tests used:
human DGKα = human DGKα (Homo sapiens (Human), UniProt P23743); assay: DGKα ADPGLO assay (detergent/lipid micelle substrate); type: biochemical
Description: DGK Alpha ADPGLO (Truncated) IC50 (uM)
The detergent/lipid micelle was prepared by combining 15 g phosphatidylserine (Avanti 840035P) and 1 g diacylglycerol (8008110) and dissolving into 150 mL chloroform in a 2 L round bottom flask. Chloroform was removed under high vacuum by rotary evaporation. […] The lipid/detergent solution was split into 5 mL aliquots and stored at −80° C.

[1] = test system: human venous whole blood (IFN-γ); assay: Human whole blood IFN-γ assay; type: cell-based
Description: Human venous whole blood (22.5 μL per well), obtained from healthy donors, was pre-treated with compounds for one hour at 37° C. in a humidified 95% air/5% CO2 incubator. The blood was stimulated with 2.5 μL anti-human CD3 and anti-CD28 mAb at a final concentration of 1 μg/mL each for 24 hours at 37° C. IFN-γ in the supernatants was measured using AlphLISA kit (Cat #AL217).

human DGKζ = human DGKζ (Homo sapiens (Human), UniProt Q13574); assay: DGKζ LIPGLO assay (extruded liposome substrate, ADP-Glo luminescence); type: biochemical
[2] = truncated DGK alpha, read-out: DGK alpha ADPGLO (Truncated) IC50
[3] = whole blood, normalized to 3 μM reference compound as 100% activation, read-out: IFN-γ Whole Blood Normalized EC50
[4] = liposome assay, read-out: DGK zeta LIPGLO IC50
[5] = ADPGLO assay, read-out: DGK alpha ADPGLO IC50
[6] = liposome (LIPGLO) assay, read-out: DGK zeta (liposome assay) IC50
[7] = Homo sapiens, whole blood, normalized to 3 μM reference compound as 100% activation, read-out: IFN-γ Whole Blood Normalized EC50
[8] = human whole blood, anti-CD3 plus anti-CD28 stimulation, 24 hours, read-out: IFN-γ Whole Blood EC50

Sequence of human DGKζ (Q13574 other isoform, or with tags, fused parts or gaps): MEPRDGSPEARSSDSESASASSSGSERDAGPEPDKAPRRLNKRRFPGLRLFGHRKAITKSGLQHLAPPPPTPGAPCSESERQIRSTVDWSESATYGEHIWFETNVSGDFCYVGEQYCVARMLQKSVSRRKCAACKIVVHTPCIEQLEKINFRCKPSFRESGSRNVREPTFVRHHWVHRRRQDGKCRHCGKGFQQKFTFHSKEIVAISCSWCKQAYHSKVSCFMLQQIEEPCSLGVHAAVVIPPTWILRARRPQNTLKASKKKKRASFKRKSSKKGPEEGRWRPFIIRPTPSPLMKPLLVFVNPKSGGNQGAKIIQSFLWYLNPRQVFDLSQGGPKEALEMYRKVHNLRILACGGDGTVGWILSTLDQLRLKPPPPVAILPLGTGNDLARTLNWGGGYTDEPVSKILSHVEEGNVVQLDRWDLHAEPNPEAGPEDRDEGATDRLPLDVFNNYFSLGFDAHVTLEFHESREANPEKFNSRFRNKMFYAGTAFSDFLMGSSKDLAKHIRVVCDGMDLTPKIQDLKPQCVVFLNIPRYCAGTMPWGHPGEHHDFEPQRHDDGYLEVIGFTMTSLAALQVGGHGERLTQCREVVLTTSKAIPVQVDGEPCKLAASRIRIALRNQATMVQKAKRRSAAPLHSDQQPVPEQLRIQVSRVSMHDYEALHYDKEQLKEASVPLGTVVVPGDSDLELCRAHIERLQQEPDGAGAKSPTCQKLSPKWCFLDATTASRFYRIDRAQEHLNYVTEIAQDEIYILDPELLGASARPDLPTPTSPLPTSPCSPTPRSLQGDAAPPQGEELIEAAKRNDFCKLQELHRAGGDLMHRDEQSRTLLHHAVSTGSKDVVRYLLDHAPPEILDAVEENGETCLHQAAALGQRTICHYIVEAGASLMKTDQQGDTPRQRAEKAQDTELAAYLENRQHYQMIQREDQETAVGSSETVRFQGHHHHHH
Sequence of human DGKα (P23743 whole entry, looked up, the tested form may be a part): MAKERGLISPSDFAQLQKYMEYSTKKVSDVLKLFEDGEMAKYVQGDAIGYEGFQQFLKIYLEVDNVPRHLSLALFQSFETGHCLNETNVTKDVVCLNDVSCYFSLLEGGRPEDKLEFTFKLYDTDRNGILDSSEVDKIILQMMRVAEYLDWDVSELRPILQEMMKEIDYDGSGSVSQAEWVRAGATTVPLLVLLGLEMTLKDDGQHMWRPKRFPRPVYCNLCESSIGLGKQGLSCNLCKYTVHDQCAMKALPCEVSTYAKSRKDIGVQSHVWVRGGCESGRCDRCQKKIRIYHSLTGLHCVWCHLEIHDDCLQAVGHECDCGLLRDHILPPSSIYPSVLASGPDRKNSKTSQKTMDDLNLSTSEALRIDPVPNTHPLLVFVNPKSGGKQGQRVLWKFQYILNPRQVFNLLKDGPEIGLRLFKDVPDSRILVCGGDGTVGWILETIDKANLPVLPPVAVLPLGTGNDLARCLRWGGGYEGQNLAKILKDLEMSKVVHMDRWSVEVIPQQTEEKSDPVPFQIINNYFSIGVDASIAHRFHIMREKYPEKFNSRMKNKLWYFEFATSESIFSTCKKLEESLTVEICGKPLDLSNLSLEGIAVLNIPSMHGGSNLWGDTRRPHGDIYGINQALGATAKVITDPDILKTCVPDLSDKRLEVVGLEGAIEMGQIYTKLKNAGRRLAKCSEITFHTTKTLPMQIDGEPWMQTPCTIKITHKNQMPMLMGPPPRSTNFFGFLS

Structure (SMILES)	IC50 (human DGKα; [2]) [nM]	IC50 (human DGKζ; [4]) [nM]	IC50 (human DGKα; [5]) [nM]	EC50 ([1]; Homo sapiens, 24 h, human whole blood, anti-CD3 plus anti-CD28 stimulation, 24 hours, read-out: IFN-γ Whole Blood EC50) [nM]	IC50 (human DGKζ; [6]) [nM]	EC50 [1, 8] [nM]	EC50 [1, 3] [nM]	EC50 [1, 7] [nM]
CCC(c1ccc(C#N)cc1)N1C[C@H](CC)N(c2nc(=O)n(C)c3ccc(C#N)nc23)C[C@H]1CC (stereo partly drawn) [Example 221, 4-((2S,5R)-4-(1-(4-cyanophenyl)propyl)-2,5-diethylpiperazin-1-yl)-1-methyl-2-oxo-1,2-dihydropyrido[3,2-d] pyrimidine-6-carbonitrile]	2	250					480	
CCC(c1ccc(C(F)(F)F)cc1)N1C[C@H](CC)N(c2nc(=O)n(C)c3ccc(Cl)nc23)C[C@H]1CC (single isomer, unassigned) [Example 421]			64	190	320			
CCC(c1ccc(OC)cc1)N1C[C@H](CC)N(c2nc(=O)n(C)c3ccc(C#N)nc23)C[C@H]1CC (stereo partly drawn) [Example 212, 4-((2S,5R)-2,5-diethyl-4-(1-(4-methoxyphenyl)propyl)piperazin-1-yl)-1-methyl-2-oxo-1,2-dihydropyrido[3,2-d]pyrimidine-6-carbonitrile]	18	70					22	
CCC(c1ccc(OC(F)F)cc1F)N1C[C@H](CC)N(c2nc(=O)n(C)c3ccc(C#N)nc23)C[C@H]1CC (stereo partly drawn) [Example 233, 4-((2S,5R)-4-(1-(4-(difluoromethoxy)-2-fluorophenyl)propyl)-2,5-diethylpiperazin-1-yl)-1-methyl-2-oxo-1,2-dihydropyrido[3,2-d]pyrimidine-6-carbonitrile]	170	950					2770	
CC[C@H]1CN(C(C)c2ccc(CN3CCOC(C)(C)C3)cc2)[C@H](CC)CN1c1nc(=O)n(C)c2ccc(C#N)nc12 (stereo partly drawn) [Example 276, 4-((2S,5R)-4-(1-(4-((2,2-dimethylmorpholino)methyl)phenyl)ethyl)-2,5-diethylpiperazin-1-yl)-1-methyl-2-oxo-1,2-dihydropyrido[3,2-d]pyrimidine-6-carbonitrile]	120	1380					3560	
CCC(c1ccc(OCC2CC2)cc1)N1C[C@H](C)N(c2nc(=O)n(C)c3ccc(C#N)nc23)C[C@H]1CC (stereo partly drawn) [Example 309, 4-((2S,5R)-4-(1-(4-(cyclopropylmethoxy)phenyl)propyl)-5-ethyl-2-methylpiperazin-1-yl)-1-methyl-2-oxo-1,2-dihydropyrido[3,2-d]pyrimidine-6-carbonitrile]			350		850	1480		
[2H]C([2H])([2H])Oc1ccc(C(CC)N2C[C@H](CC)N(c3nc(=O)n(C)c4ccc(C#N)nc34)C[C@H]2CC)cc1 (single isomer, unassigned) [Example 208]	25	78					17	
CCC(c1ccc(Cl)cc1F)N1C[C@H](CC)N(c2nc(=O)n(C)c3ccc(C#N)nc23)C[C@H]1CC (stereo partly drawn) [Example 239, 4-((2S,5R)-4-(1-(4-chloro-2-fluorophenyl)propyl)-2,5-diethylpiperazin-1-yl)-1-methyl-2-oxo-1,2-dihydropyrido[3,2-d]pyrimidine-6-carbonitrile]	94	2230					2850	
CC[C@H]1CN(C(c2ccc(F)cc2)c2noc(C3CC3)n2)[C@H](CC)CN1c1nc(=O)n(C)c2ccc(C#N)nc12 (single isomer, unassigned) [Example 372]			4		43	150		
CC[C@@H]1CN(c2nc(=O)n(C)c3ccc(C#N)nc23)[C@@H](C)CN1C(C)c1ccc2oc(=O)n(C)c2c1 (stereo partly drawn) [Example 298, 4-((2S,5R)-5-ethyl-2-methyl-4-(1-(3-methyl-2-oxo-2,3-dihydrobenzo[d]oxazol-5-yl)ethyl)piperazin-1-yl)-1-methyl-2-oxo-1,2-dihydropyrido[3,2-d]pyrimidine-6-carbonitrile]	480	380					420	
CC(c1ccc(CN2C[C@@H]3C[C@H]2CO3)cc1)N1C[C@H](C)N(c2nc(=O)n(C)c3ccc(C#N)nc23)C[C@H]1C (stereo partly drawn) [Example 387, 4-((2S,5R)-4-(1-(4-(((1S,4S)-2-oxa-5-azabicyclo[2.2.1]heptan-5-yl)methyl)phenyl)ethyl)-2,5-dimethylpiperazin-1-yl)-1-methyl-2-oxo-1,2-dihydropyrido[3,2-d]pyrimidine-6-carbonitrile]			1930		6070	770		
CC[C@@H]1CN(c2nc(=O)n(C)c3ccc(C#N)nc23)[C@@H](CC)CN1Cc1ccc(C(F)(F)F)cc1F [Example 204, 4-((2S,5R)-2,5-diethyl-4-(2-fluoro-4-(trifluoromethyl)benzyl)piperazin-1-yl)-1-methyl-2-oxo-1,2-dihydropyrido[3,2-d]pyrimidine-6-carbonitrile]	120	1410						410

Now from value to molecule, other results behind:

IC50 (human DGKα; [2]) [nM]	IC50 (human DGKζ; [4]) [nM]	IC50 (human DGKα; [5]) [nM]	EC50 ([1]; Homo sapiens, 24 h, human whole blood, anti-CD3 plus anti-CD28 stimulation, 24 hours, read-out: IFN-γ Whole Blood EC50) [nM]	IC50 (human DGKζ; [6]) [nM]	EC50 [1, 8] [nM]	Structure (SMILES)	EC50 [1, 3] [nM]	EC50 [1, 7] [nM]
620	970					CC[C@H]1CN(C(C)c2cnc(N3CCOCC3)nc2)[C@H](CC)CN1c1nc(=O)n(C)c2ccc(C#N)nc12 (stereo partly drawn) [Example 207, 4-((2S,5R)-2,5-diethyl-4-(1-(2-morpholinopyrimidin-5-yl)ethyl)piperazin-1-yl)-1-methyl-2-oxo-1,2-dihydropyrido[3,2-d] pyrimidine-6-carbonitrile]	1060	
460	260					[2H]C([2H])([2H])Oc1ccc(C(C)N2C[C@H](CC)N(c3nc(=O)n(C)c4ccc(C#N)nc34)C[C@H]2CC)cc1 (single isomer, unassigned) [Example 191]	290	
650	1770					CC[C@H]1CN(C(C)c2ccc(C3CC3)nc2)[C@H](CC)CN1c1nc(=O)n(C)c2ccc(C#N)nc12 (stereo partly drawn) [Example 193, 4-((2 S,5R)-4-(1-(6-cyclopropylpyridin-3-yl)ethyl)-2,5-diethylpiperazin-1-yl)-1-methyl-2-oxo-1,2-dihydropyrido[3,2-d]pyrimidine-6-carbonitrile]	1150	
16000	174000					CC[C@H]1CN(C(C)c2ccc(CN3CCC(OC)CC3)cc2)[C@H](CC)CN1c1nc(=O)n(C)c2ccc(C#N)nc12 (single isomer, unassigned) [Example 274]	5330	
1210	2650					CC[C@H]1CN(C(C)c2cnc(C(F)(F)F)nc2)[C@H](CC)CN1c1nc(=O)n(C)c2ccc(C#N)nc12 (stereo partly drawn) [Example 226, 4-((2S,5R)-2,5-diethyl-4-(1-(2-(trifluoromethyl)pyrimidin-5-yl)ethyl)piperazin-1-yl)-1-methyl-2-oxo-1,2-dihydropyrido[3,2-d]pyrimidine-6-carbonitrile]	5600	
160	900					CCC(c1ccc(C2CC2)cc1)N1C[C@H](CC)N(c2nc(=O)n(C)c3ccc(C#N)nc23)C[C@H]1CC (stereo partly drawn) [Example 201, 4-((2S,5R)-4-(1-(4-cyclopropylphenyl)propyl)-2,5-diethylpiperazin-1-yl)-1-methyl-2-oxo-1,2-dihydropyrido[3,2-d]pyrimidine-6-carbonitrile]		230
42	130					CC[C@H]1CN(C(C)c2ccc(N3CCCC3=O)cc2)[C@H](CC)CN1c1nc(=O)n(C)c2ccc(C#N)nc12 (stereo partly drawn) [Example 230, 4-((2S,5R)-2,5-diethyl-4-(1-(4-(2-oxopyrrolidin-1-yl)phenyl)ethyl)piperazin-1-yl)-1-methyl-2-oxo-1,2-dihydropyrido[3,2-d]pyrimidine-6-carbonitrile]	1290	
460	4130					CCC(c1ccc(C(F)(F)F)nc1)N1C[C@H](CC)N(c2nc(=O)n(C)c3ccc(C#N)nc23)C[C@H]1CC (stereo partly drawn) [Example 225, 4-((2S,5R)-2,5-diethyl-4-(1-(6-(trifluoromethyl)pyridin-3-yl)propyl)piperazin-1-yl)-1-methyl-2-oxo-1,2-dihydropyrido[3,2-d]pyrimidine-6-carbonitrile]	610	
190	300					CC[C@H]1CN(C(C)c2ccc(C)nc2)[C@H](CC)CN1c1nc(=O)n(C)c2ccc(C#N)nc12 (stereo partly drawn) [Example 228, 4-((2S,5R)-2,5-diethyl-4-(1-(6-methylpyridin-3-yl)ethyl)piperazin-1-yl)-1-methyl-2-oxo-1,2-dihydropyrido[3,2-d]pyrimidine-6-carbonitrile]	600	
61	52					CC[C@H]1CN(C(C)c2ccc(C3CC3)nc2)[C@H](CC)CN1c1nc(=O)n(C)c2ccc(C#N)nc12 (stereo partly drawn) [Example 192, 4-((2 S,5R)-4-(1-(6-cyclopropylpyridin-3-yl)ethyl)-2,5-diethylpiperazin-1-yl)-1-methyl-2-oxo-1,2-dihydropyrido[3,2-d]pyrimidine-6-carbonitrile]	110	
680	3560					CC[C@H]1CN(C(C)c2ccc(C)nc2)[C@H](CC)CN1c1nc(=O)n(C)c2ccc(C#N)nc12 (stereo partly drawn) [Example 229, 4-((2S,5R)-2,5-diethyl-4-(1-(6-methylpyridin-3-yl)ethyl)piperazin-1-yl)-1-methyl-2-oxo-1,2-dihydropyrido[3,2-d]pyrimidine-6-carbonitrile]	1610	
